Where a name gives a salt, the structure may show the parent alone.
Columns and labels:
BACE1 enzyme = BACE1 enzyme (Homo sapiens (Human), UniProt P56817); experiment: BACE1 Cell-Free Assay (fluorescence polarization, synthetic APP substrate); format: biochemical; conditions: geometric mean of 2-7 determinations (values marked b: single determination)
Source text: This assay measures the inhibition of the beta-secretase enzyme as it cleaves a non-native peptide.
A synthetic APP substrate that can be cleaved by beta-secretase having N-terminal biotin and made fluorescent by the covalent attachment of Oregon Green at the Cys residue is used to assay beta-secretase activity in the presence or absence of the inhibitory compounds. […] The BACE1 enzyme is affinity purified material from conditioned media of CHO-K1 cells that have been transfected with a soluble BACE construct (BACE1deltaTM96His). Compounds are incubated in a ½ log dose response curve from a top concentration of 100 μM with BACE1 enzyme and the biotinylated fluorescent peptide in 384-well black plates (Thermo Scientific #4318). BACE1 is at a final concentration of 0.1 nM with a final concentration of peptide substrate of 150 nM in a reaction volume of 30 μL assay buffer (100 mM sodium acetate, pH 4.5 (brought to pH with acetic acid), and 0.001% Tween-20). Plates are covered and incubated for 3 hours at 37° C. The reaction is stopped with the addition of 30 μL of 1.5 μM Streptavidin (Pierce, #21125). After a 10 minute incubation at room temperature, plates are read on a PerkinElmer Envision for fluorescent polarization (Ex485 nm/Em530 nm). The activity of the beta-secretase enzyme is detected by changes in the fluorescence polarization that occur when the substrate is cleaved by the enzyme.

[1] = system: H4 human neuroglioma cells over-expressing the wild-type human APP695; experiment: sAPPβ Whole-Cell Assay (in vitro sAPPb assay, ELISA); format: cell-based; conditions: 18 hours, geometric mean of 2-7 determinations (values marked b: single determination)
Protocol: Whole Cell-Free Assay (In Vitro sAPPb Assay):
H4 human neuroglioma cells over-expressing the wild-type human APP695 are treated for 18 hours with compound in a final concentration 1% DMSO. sAPPβ levels are measured using TMB-ELISA with capture APP N-terminal antibody (Affinity BioReagents, OMA1-03132), wild-type sAPPβ specific reporter p192 (Elan), and tertiary anti rabbit-HRP (GE Healthcare).

BACE2 enzyme = BACE2 enzyme (Homo sapiens (Human), UniProt Q9Y5Z0); experiment: BACE2 Cell-free Assay (fluorescence polarization, synthetic substrate); format: biochemical; conditions: single determination
Protocol: This assay measures the inhibition of the BACE2 enzyme as it cleaves a non-native peptide. A synthetic substrate that can be cleaved by BACE2 having N-terminal biotin and made fluorescent by the covalent attachment of Oregon Green at the Cys residue is used to assay BACE2 activity in the presence or absence of the inhibitory compounds. The substrate is Biotin-[…]-C(Oregon green)-KK-OH. The BACE2 enzyme is available from Enzo Life Sciences (Cat # BML-SE550). Compounds are incubated in a ½ log dose response curve from a top concentration of 100 μM with BACE2 enzyme and the biotinylated fluorescent peptide in 384-well black plates (Thermo Scientific #4318). BACE2 is at a final concentration of 2.5 nM with a final concentration of peptide substrate of 150 nM in a reaction volume of 30 μL assay buffer (100 mM Sodium Acetate, pH 4.5 (brought to pH with acetic acid), and 0.001% Tween-20). Plates are covered and incubated for 3 hours at 37° C. The reaction is stopped with the addition of 30 μL of 1.5 μM Streptavidin (Pierce, #21125). After a 10 minute incubation at room temperature, plates are read on a PerkinElmer Envision for fluorescent polarization (Ex485 nm/Em530 nm). The activity of the beta-secretase enzyme is detected by changes in the fluorescence polarization that occur when the substrate is cleaved by the enzyme.

BACE2 enzyme, sequence (Q9Y5Z0 63-518): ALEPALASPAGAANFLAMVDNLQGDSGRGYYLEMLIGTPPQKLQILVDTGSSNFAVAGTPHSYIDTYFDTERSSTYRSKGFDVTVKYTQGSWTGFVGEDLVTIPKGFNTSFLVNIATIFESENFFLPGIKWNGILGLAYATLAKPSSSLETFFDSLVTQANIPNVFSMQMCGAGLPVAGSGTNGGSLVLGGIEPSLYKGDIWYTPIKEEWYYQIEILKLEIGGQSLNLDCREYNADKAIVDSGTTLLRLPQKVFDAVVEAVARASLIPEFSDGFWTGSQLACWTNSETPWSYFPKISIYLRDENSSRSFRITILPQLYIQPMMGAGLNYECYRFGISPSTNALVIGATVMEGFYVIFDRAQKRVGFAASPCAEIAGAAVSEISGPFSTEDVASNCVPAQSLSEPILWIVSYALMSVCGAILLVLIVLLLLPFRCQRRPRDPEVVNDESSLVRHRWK
BACE1 enzyme, sequence (P56817 46-457): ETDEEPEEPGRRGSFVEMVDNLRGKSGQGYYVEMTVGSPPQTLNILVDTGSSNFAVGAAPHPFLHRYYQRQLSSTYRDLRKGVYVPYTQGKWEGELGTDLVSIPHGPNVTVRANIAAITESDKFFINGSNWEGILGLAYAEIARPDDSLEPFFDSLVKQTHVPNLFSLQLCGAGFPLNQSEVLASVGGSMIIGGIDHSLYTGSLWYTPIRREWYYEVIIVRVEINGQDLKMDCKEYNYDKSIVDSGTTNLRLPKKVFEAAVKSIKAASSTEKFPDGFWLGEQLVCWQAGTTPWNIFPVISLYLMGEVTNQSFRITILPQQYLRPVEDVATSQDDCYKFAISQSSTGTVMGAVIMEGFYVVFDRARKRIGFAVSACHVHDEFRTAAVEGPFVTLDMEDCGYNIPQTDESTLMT

Molecule | IC50 (BACE1 enzyme) [nM] | IC50 [1] [nM] | IC50 (BACE2 enzyme) [nM] | IC50 ([1]; Homo sapiens) [nM]
NC1=N[C@@]2(c3ccc(F)cc3F)CO[C@@H](c3ncco3)C[C@H]2CS1 [Example 1, (4aR,6R,8aS)-8a-(2,4-Difluorophenyl)-6-(1,3-oxazol-2-yl)-4,4-a,5,6,8,8a-hexahydropyrano[3,4-][1,3]thiazin-2-amine] | 511 | 32 | 619 | 
Cn1ccc([C@H]2C[C@H]3CSC(N)=N[C@@]3(c3ccc(F)cc3F)CO2)n1 [Example 2, (4aR,6R,8aS)-8a-(2,4-Difluorophenyl)-6-(1-methyl-1H-pyrazol-3-yl)-4,4-a,5,6,8,8a-hexahydropyrano[3,4-][1,3]thiazin-2-amine] | 183 | 17 | 4740 | 
Cn1nccc1[C@H]1C[C@H]2CSC(N)=N[C@@]2(c2ccc(F)cc2F)CO1 [Example 3, (4aR,6R,8aS)-8a-(2,4-Difluorophenyl)-6-(1-methyl-1H-pyrazol-5-yl)-4,4-a,5,6,8,8a-hexahydropyrano[3,4-d][1,3]thiazin-2-amine] | 7780 | 636 |  | 
Cc1coc([C@H]2C[C@H]3CSC(N)=N[C@@]3(c3ccc(F)cc3F)CO2)n1 [Example 4, (4aR,6R,8aS)-8a-(2,4-Difluorophenyl)-6-(4-methyl-1,3-oxazol-2-yl)-4,4-a,5,6,8,8a-hexahydropyrano[3,4-][1,3]thiazin-2-amine] | 84 | 4 | 273 | 
Cc1cnc([C@H]2C[C@H]3CSC(N)=N[C@@]3(c3ccc(F)cc3F)CO2)o1 [Example 5, (4aR,6R,8aS)-8a-(2,4-Difluorophenyl)-6-(5-methyl-1,3-oxazol-2-yl)-4,4-a,5,6,8,8a-hexahydropyrano[3,4-d][1,3]thiazin-2-amine] | 473 | 23 | 1150 | 
C[C@H]1SC(N)=N[C@@]2(c3ccc(F)cc3F)CO[C@@H](c3ncco3)C[C@@H]12 [Example 6, (4R,4aR,6R,8aS)-8a-(2,4-Difluorophenyl)-4-methyl-6-(1,3-oxazol-2-yl)-4,4-a,5,6,8,8a-hexahydropyrano[3,4-][1,3]thiazin-2-amine] | 198 | 32 | 2370 | 
Cn1cc([C@H]2C[C@H]3CSC(N)=N[C@@]3(c3ccc(F)cc3F)CO2)cn1 [Example 7, (4aR,6R,8aS)-8a-(2,4-Difluorophenyl)-6-(1-methyl-1H-pyrazol-4-yl)-4,4-a,5,6,8,8a-hexahydropyrano[3,4-][1,3]thiazin-2-amine] |  | 5 | 185 | 
Cc1csc([C@H]2C[C@H]3CSC(N)=N[C@@]3(c3ccc(F)cc3F)CO2)n1 [Example 8, (4aR,6R,8aS)-8a-(2,4-Difluorophenyl)-6-(4-methyl-1,3-thiazol-2-yl)-4,4-a,5,6,8,8a-hexahydropyrano[3,4-][1,3]thiazin-2-amine] | 260 | 27 | 9720 | 
Cc1nccc([C@H]2C[C@H]3CSC(N)=N[C@@]3(c3ccc(F)cc3F)CO2)n1 [Example 9, (4aR,6R,8aS)-8a-(2,4-Difluorophenyl)-6-(2-methylpyrimidin-4-yl)-4,4-a,5,6,8,8a-hexahydropyrano[3,4-][1,3]thiazin-2-amine] | 583 | 28 | > 100000 | 
Cc1nc([C@H]2C[C@H]3CSC(N)=N[C@@]3(c3ccc(F)cc3F)CO2)co1 [Example 11, (4aR,6R,8aS)-8a-(2,4-Difluorophenyl)-6-(2-methyl-1,3-oxazol-4-yl)-4,4-a,5,6,8,8a-hexahydropyrano[3,4-d][1,3]thiazin-2-amine, hydrochloride salt] | 316 | 34 | 2020 | 
Cc1ccnc([C@H]2C[C@H]3CSC(N)=N[C@@]3(c3ccc(F)cc3F)CO2)n1 [Example 12, (4aR,6R,8aS)-8a-(2,4-Difluorophenyl)-6-(4-methylpyrimidin-2-yl)-4,4-a,5,6,8,8a-hexahydropyrano[3,4-][1,3]thiazin-2-amine] | 1470 | 50 |  | 
NC1=N[C@@]2(c3ccc(F)cc3F)CO[C@@H](c3nnco3)C[C@H]2CS1 [Example 14, (4aR,6R,8aS)-8a-(2,4-Difluorophenyl)-6-(1,3,4-oxadiazol-2-yl)-4,4-a,5,6,8,8a-hexahydropyrano[3,4-][1,3]thiazin-2-amine] | 2210 | 196 |  | 
Cc1nc([C@H]2C[C@H]3CSC(N)=N[C@@]3(c3ccc(F)cc3F)CO2)oc1C [Example 15, (4aR,6R,8aS)-8a-(2,4-Difluorophenyl)-6-(4,5-dimethyl-1,3-oxazol-2-yl)-4,4-a,5,6,8,8a-hexahydropyrano[3,4-d][1,3]thiazin-2-amine] | 112 | 7 | 2820 | 
Cc1cc([C@H]2C[C@H]3CSC(N)=N[C@@]3(c3ccc(F)cc3F)CO2)on1 [Example 16, (4aR,6R,8aS)-8a-(2,4-Difluorophenyl)-6-(3-methyl-1,2-oxazol-5-yl)-4,4-a,5,6,8,8a-hexahydropyrano[3,4-][1,3]thiazin-2-amine] | 59 | 3 |  | 
NC1=N[C@@]2(c3ccc(F)cc3F)CO[C@@H](c3ccncn3)C[C@H]2CS1 [Example 18, (4aR,6R,8aS)-8a-(2,4-difluorophenyl)-6-(pyrimidin-4-yl)-4,4a,5,6,8,8a-hexahydropyrano[3,4-d][1,3]thiazin-2-amine] | 390 |  | 695 | 28
NC1=N[C@@]2(c3ccc(F)cc3F)CO[C@@H](c3ccn(C4CC4)n3)C[C@H]2CS1 [Example 19, (4aR,6R,8aS)-6-(1-cyclopropyl-1H-pyrazol-3-yl)-8a-(2,4-difluorophenyl)-4,4a,5,6,8,8a-hexahydropyrano[3,4-d][1,3]thiazin-2-amine] | 444 |  |  | 
NC1=N[C@@]2(c3ccc(F)cc3F)CO[C@@H](c3nc(C(F)(F)F)co3)C[C@H]2CS1 [Example 20, (4aR,6R,8aS)-8a-(2,4-difluorophenyl)-6-[4-(trifluoromethyl)-1,3-oxazol-2-yl]-4,4a,5,6,8,8a-hexahydropyrano[3,4-d][1,3]thiazin-2-amine] | 467 |  | 629 | 14
NC1=N[C@@]2(c3ccc(F)cc3F)CO[C@@H](c3ncccn3)C[C@H]2CS1 [Example 21, (4aR,6R,8aS)-8a-(2,4-difluorophenyl)-6-(pyrimidin-2-yl)-4,4a,5,6,8,8a-hexahydropyrano[3,4-d][1,3]thiazin-2-amine] | 983 |  | 3090 | 44
Cc1coc([C@H]2C[C@H]3[C@@H](C)SC(N)=N[C@@]3(c3ccc(F)cc3F)CO2)n1 [Example 22, (4R,4aR,6R,8aS)-8a-(2,4-difluorophenyl)-4-methyl-6-(4-methyl-1,3-oxazol-2-yl)-4,4a,5,6,8,8a-hexahydropyrano[3,4-d][1,3]thiazin-2-amine] |  |  | 1400 | 6
NC1=N[C@@]2(c3ccc(F)cc3F)CO[C@@H](c3ncc(F)cn3)C[C@H]2CS1 [Example 23, (4aR,6R,8aS)-8a-(2,4-difluorophenyl)-6-(5-fluoropyrimidin-2-yl)-4,4a,5,6,8,8a-hexahydropyrano[3,4-d][1,3]thiazin-2-amine] | 161 |  |  | 10
Cc1cnc([C@H]2C[C@H]3CSC(N)=N[C@@]3(c3ccc(F)cc3F)CO2)nc1 [Example 24, (4aR,6R,8aS)-8a-(2,4-difluorophenyl)-6-(5-methylpyrimidin-2-yl)-4,4a,5,6,8,8a-hexahydropyrano[3,4-d][1,3]thiazin-2-amine, trifluoroacetate salt] | 688 |  | 1080 | 24
(4aR,6R,8aS)-8a-(2,4-Difluorophenyl)-6-(3-methyl-1,2,4-oxadiazol-5-yl)-4,4-a,5,6,8,8a-hexahydropyrano[3,4-][1,3]thiazin-2-amine, trifluoroacetate salt [Example 13] | 439 | 34 | 208 | 

Source: US8962616B2, “Heterocyclic substituted hexahydropyrano[3,4-d][1,3]thiazin-2-amine compounds” (Pfizer Inc., priority 2012, dated 2015)
